Reference: patent publication US8969544B2, “Combined use of PRAME inhibitors and HDAC inhibitors” (priority 2004, dated 2015)

Key:
[1] = system: RAS^V12-MEFs; experiment: growth of RAS^V12-MEFs in the presence of HDAC inhibitor; type: cell-based, mouse
Method: In order to address the molecular basis for the selective growth-inhibitory activity of HDACi on cancer cells, we performed a functional genetic screen to identify genes that confer resistance to a small-molecule HDACi, named PXD101 (Plumb et al, 2003). Oncogenic RAS^V12-transformed mouse embryonic fibroblasts (RAS^V12-MEFs) were infected with a high complexity retroviral cDNA expression library derived from human K562 erythroleukemia cells and exposed to 1 μM PXD101 for three to […]. HDACi-resistant colonies appeared at low frequency only after infection with cDNA expression library. Integrated proviruses were mobilized from PXD101-resistant colonies by Moloney virus super-infection as described (Jacobs et al, 2000). After second round selection, cDNA inserts were recovered by PCR and identified by DNA sequence analysis. Using this approach, we identified full-length cDNAs encoding the human melanoma tumour antigen PRAME (PReferentially expressed Antigen in MElanoma (Ikeda et al, 1997) and Retinoic Acid Receptor alpha (RARα) as cDNAs that allow continuous proliferation in the presence of 1 μM PXD101. PRAME also rescues these cells from growth arrest by a related HDACi, Trichostatin A at a concentration of 0.1 μM.
The observed effect of PRAME on RAR signalling could result from a physical interaction of PRAME with RAR or from more indirect effects. […]

[2] = system: A375-PRAMEKD cells; experiment: human melanoma xenograft model, A375-PRAMEKD tumours; type: in vivo, mouse; conditions: 5 mg/kg RA p.o. daily, nude mice, PRAMEKD melanomas, vs vehicle
Method: To examine the role of PRAME in RA-responsiveness in vivo, we used a human melanoma xenograft model. Nude mice were subcutaneously transplanted with parental A375 into one flank and A375-PRAMEKD cells in the opposite flank and the mice were treated p.o. daily with either 5 mg/kg RA or vehicle only, while tumor volumes were measured weekly.
Female 5-6 week old athymic BALB-C nude mice (nu/nu) were s.c. implanted with 1×10^6 cells bilaterally into the axial regions. Each mouse received A375-PRAMEKD cells in its right flank and control A375 cells in its left flank. Mice were randomized into treatment groups and treated with 5 mg/kg RA or vehicle (ethanol in sunflower oil) p.o. with a 20-gauge intragastric feeding tube daily. Tumor diameter was measured with calipers weekly. The pRS vector which was used to generate A375-PRAMEKD cells is a self-inactivating retroviral vector, to prevent re-activation and spreading of virus (Brummelkamp et al., 2002a; Brummelkamp et al., 2002b). The experiment was performed twice, with n=20 and n=10 mice and results were similar in both experiments.

[3] = system: RARβ; experiment: immunoblot for endogenous RARβ in F9 cells treated with RA; type: cell-based, mouse; conditions: 10^−7 M RA; parental and mock-transfected F9 cells, not PRAME-transfected
Method: (§1) Cells were lysed in Ripa buffer (50 mM Tris pH 8.0, 150 mM NaCl, 1% NP-40, 0.5% deoxycholic acid, and 0.1% SDS) supplemented with protease inhibitors (Complete; Roche) and […] PMSF and proteins were separated on 10-14% SDS-PAGE gels. Proteins were transferred to polyvinylidine difluoride membranes (Immobilon P, Millipore) and Western blots were probed with the indicated antibodies. For TAP (co-)immunoprecipitations cells were lysed in ELB buffer (0.25 M NaCl, 0.1% NP-40, 50 mM HEPES pH 7.3) supplemented with protease inhibitors and PMSF. Lysates were incubated with IgG-coated sepharose beads (Amersham) to immunoprecipitate TAP and TAP-PRAME (Rigaut et al 1999), indicated as anti-TAP, or with protein A beads and normal mouse serum (mock IP) for 2 hrs, washed, and separated on SDS-PAGE gels.

[4] = system: F9 mouse embryo carcinoma cells; experiment: RA-induced apoptosis in F9 cells (cleaved caspase 3); type: cell-based; conditions: 10^−7 M RA; vector controls, not PRAME transfectants
Excerpt: RA induces proliferation arrest, differentiation and apoptosis in many cell types. We therefore asked if PRAME expression affected the RA-induced differentiation of F9 mouse embryo carcinoma cells towards parietal endoderm (Strickland and Mandavi, 1978). F9 cells were stably transfected with PRAME or control vector and individual colonies were selected. In the to absence of RA, the morphology of all transfected cells was the some as that of parental F9 cells. However, F9 cells stably transfected with PRAME […] and treated with 10^−7 M RA were resistant to RA-induced morphological differentiation and growth arrest. Apart from differentiating, a fraction of F9 cells treated with RA dies by apoptosis (Atencia et al, 1994). […] We conclude that PRAME expression confers resistance to RA-induced proliferation arrest, differentiation and apoptosis.
(§2) F9 cells were stably transfected with PRAME or empty vector and resistant cells were differentiated in 10^−7 M RA for 5 days. A375 cells were stably transfected with pRS-PRAME or empty vector and stable clones were cultured according to the 3T3 protocol. Medium with RA was refreshed every 24-48 hrs.

[5] = system: A375-PRAME^KD cells; experiment: proliferation of A375-PRAME^KD cells, 3T3 protocol; type: cell-based, human; conditions: 15 days, medium with 5 μM RA
Method: (§3) To assess the effect of PRAME knockdown on cell proliferation, we generated stable derivatives of A375 melanoma having shRNA-mediated knockdown of PRAME expression (A375-PRAME^KD). These A375-PRAME^KD cells were cultured for 15 days according to the 3T3 protocol.
as §2

[6] = system: RARβ and p21; experiment: immunoblot of RA target genes RARβ and p21 in A375-PRAME^KD cells; type: cell-based, human; conditions: 5 μM RA
Method: as §1

[7] = system: p21 promoter; experiment: p21 promoter-luciferase reporter in B16 melanoma cells; type: cell-based, mouse; conditions: B16 melanoma cells treated with RA; suppressed by PRAME
Method: as §3
Transfections were carried out using the Lipofectamine reagent (Invitrogen), except for Ras^V12 MEFs and Phoenix cells, which were transfected using calcium phosphate precipitation. RA-based reporter assays were done in DMEM with charcoal-stripped FCS (Hyclone). In reporter assays 0.5 μg of reporter-luciferase, 1 ng CMV-renilla, and 3 μg of the indicated DNA were transfected. RA, PXD101, or TSA was added 24 hrs after transfection and assays were performed 48 hrs after transfection. In knock-down experiments, RA or PXD101 was added 72 hrs after transfection and assays were performed 96 hrs after transfection. Luciferase activities shown represent ratios between luciferase and renilla internal control values.

[8] = system: histone H3 acetylation, p21; experiment: immunoblot for acetyl-H3 and p21 in Ras^V12 MEFs treated with HDACi; type: cell-based, mouse; conditions: 1 μM PXD101 for 16 hrs; not prevented by PRAME or RARα expression
Method: as §1, with “Ras^V12 MEFs were also transduced with PRAME or RARα retrovirus and treated with 1 μM PXD101 for 16 hrs. Extracts were immunoblotted for acetyl-H3, p21, PRAME, RARα and CDK4 (control). […] Cells” for “Cells”

CC(/C=C/C(=O)NO)=C\[C@@H](C)C(=O)c1ccc(N(C)C)cc1 [Trichostatin A]
cell growth ([1]; Trichostatin A 0.1 μM): growth arrest

CC1=C(/C=C/C(C)=C/C=C/C(C)=C/C(=O)O)C(C)(C)CCC1 [RA, All-trans-retinoic acid]
tumor growth [2]: severely retarded | endogenous RARβ protein expression [3]: induced | cleaved caspase 3 (apoptosis) [4]: apparent in vector controls | proliferation rates [5]: significantly decreased proliferation rates, especially when cultured in the presence of RA | induction of RA target genes RARβ and p21 [6]: enhanced | p21 promoter-luciferase reporter activity [7]: activated

O=C(/C=C/c1cccc(S(=O)(=O)Nc2ccccc2)c1)NO [PXD101, N-hydroxy-3-(3-phenylsulfamoyl-phenyl)-acrylamide]
cell growth ([1]; 1 μM PXD101): growth arrest | histone H3 acetylation [8]: increase | p21 expression [8]: induction
